Test results reported in patent publication US5559025A (priority 1991, dated 1996).
Entries after “also recorded” stand apart in the source; their conditions may differ. Read-outs that look alike come from different tables or passages of the source. *1 amine or outer side, *2 acyl side, *3 side chain or, on linkers, in order; H or OH if unused. Where a SMILES comes first, the peptide text is derived from it. CO = O=C([*:1])[*:2]

Assays:
Type in all cases: biochemical
[1] = target: T1, HRV2 2A proteinase (Human rhinovirus 2, UniProt P04936)
Target sequence in this assay (P04936 851-992 limits assumed): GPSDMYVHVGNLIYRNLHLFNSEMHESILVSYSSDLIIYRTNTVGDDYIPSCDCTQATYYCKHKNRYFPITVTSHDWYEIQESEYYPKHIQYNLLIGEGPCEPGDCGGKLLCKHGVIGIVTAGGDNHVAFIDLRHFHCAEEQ

[2] = target: T1, HRV2 2A proteinase; conditions: for cleavability by HRV2 2A (in words): trans-cleavage assay, 34° C., up to 32 minutes
[3] = target: T1, HRV2 2A proteinase; test: Competition of non-cleavable or slightly cleavable peptides with P89 cleaving
[4] = target: T1, HRV2 2A proteinase; test: Km determination with peptide substrate P89 (trans-cleavage assays); conditions: peptide substrate P89, 15° C., 50 to 500 μmol/l, repeated three times with various 2A preparations
Description: […] For competitive or inhibitory studies, an additional 5 μl of solution containing the substance for competition or inhibition are added. The reaction is stopped by adding an equal volume of a 0.5M HClO4 solution. The samples are cooled to 0° C. for 10 minutes or frozen overnight at -20° C. After centrifugation (Eppendorf centrifuge, 10 min, 4° C.) an equal volume of a 1.4M K2 HPO4 solution is added. The samples are left to stand for 5 minutes at ambient temperature and the precipitate is separated off by centrifuging. […] The reaction products are detected by UV absorption at 214 and 280 nm. The course of the reaction over a period of time (% cleavage of the peptide substrate) is determined by "reverse phase" HPLC. The area of the newly formed peptide peak corresponding to the quantity of the carboxy- and amino terminal cleavage products is determined for each case and compared with the area of the uncleaved P89. The cleavage products are determined either by comigration with the corresponding reference peptides and amino acid analysis or by protein sequencing (Hunkapillar and Hood, 1983, loc. cit.). […]
In order to identify the Km value for the Wild type substrate P89 a set of trans-cleavage assays are carried out at 15° C. with various P89 substrate concentrations (between 50 and 500 μmol/l). […] For each substrate concentration the reaction speed was determined (% cleavage of P89). […]

[5] = inhibitor added before start of reaction, repeated three times

For `O[C@H](CS)[C@H](O)CS` (racemic) [DTT, Dithiothreitol], the “effect on the activity of 2A relative to peptide P89” value [1, 5] was “no effect”.

For `c1cnc2c(c1)ccc1cccnc12` [1,10-phenanthrolene], the “effect on the activity of 2A relative to peptide P89” value [1, 5] was “a certain inhibiting effect at higher concentrations”.

With `O=c1oc(Cl)c(Cl)c2ccccc12` [3,4-dichloroisocumarin] the “effect on the activity of 2A relative to peptide P89” value [1, 5] was “no activity”.

In the case of `N=C(N)c1ccc(CS(=O)(=O)F)cc1` [APMSF, 4-(Amidinophenyl)methanesulphonylfluoride], the “effect on the activity of 2A relative to peptide P89” value [1, 5] is reported as “no activity”.

`CC(C)CC(NC(=O)C1OC1C(=O)O)C(=O)NCCCCNC(=N)N` (stereo not drawn) [E-64] was tested, and the “effect on the activity of 2A relative to peptide P89” value [1, 5] was “no effect”.

For `O=C(O)CN(CCN(CC(=O)O)CC(=O)O)CC(=O)O` [EDTA], the “effect on the activity of 2A relative to peptide P89” value [1] was “a certain inhibiting effect at higher concentrations”.

In the case of `CC(=O)N[C@@H](CC(C)C)C(=O)N[C@@H](CC(C)C)C(=O)N[C@H](C=O)CCCNC(=N)N` [Leupeptine], the “effect on the activity of 2A relative to peptide P89” value [1, 5] is reported as “ineffectiveness”.

For `CCN1C(=O)C=CC1=O` [N-ethylmaleimide], the “effect on the activity of 2A relative to peptide P89” value [1, 5] was “strongly inhibit”.

`Cc1ccc(S(=O)(=O)N[C@@H](CCCCN)C(=O)CCl)cc1` [TLCK, Tosyllysylchloromethylketone] was tested, and the “effect on the activity of 2A relative to peptide P89” value [1, 5] was “only effective at higher concentrations”.

With `Cc1ccc(S(=O)(=O)N[C@@H](Cc2ccccc2)C(=O)CCl)cc1` [TPCK, Tosylphenylalanylchloromethylketone] the “effect on the activity of 2A relative to peptide P89” value [1, 5] was “only effective at higher concentrations”.

In the case of `CC(C)[C@H](NC(=O)[C@H](CCCNC(=N)N)NC(=O)N[C@@H](Cc1ccccc1)C(=O)O)C(=O)N[C@H](C=O)CCCNC(=N)N` [antipain] ({Phe-CO}-Arg-Val-Arg-aldehyde), the “effect on the activity of 2A relative to peptide P89” value [1, 5] is reported as “highly effective”.

In the case of `N[C@@H](CS)C(=O)O` [cysteine], the “effect on the activity of 2A relative to peptide P89” value [1, 5] is reported as “no effect”.

In the case of `CC(C)C[C@H](NC(=O)N[C@H](C(=O)N[C@@H](CCC(N)=O)C(=O)N[C@@H](C)C=O)[C@@H]1CCNC(=N)N1)C(=O)O` [elastatinal], the “effect on the activity of 2A relative to peptide P89” value [1, 5] is reported as “highly effective”.

In the case of `NC(=O)CI` [iodacetamide], the “effect on the activity of 2A relative to peptide P89” value [1, 5] is reported as “strongly inhibit”.

Ac-IITTAGPSDM-NH2 [P145, IITTAGPSDM] was tested, and the “cleavability by HRV2 2A (in words)” value [2] was “cannot be cleaved” and the “ability to act as competitor/inhibitor of P89 cleaving” value [3] was “became competitive; also recorded: behaved competitively; also recorded: competitive inhibitors”.

In the case of Ac-ITTAGPSD-NH2 [WTD8, ITTAGPSD], the “cleavability by HRV2 2A (in words)” value [2] is reported as “cannot be cleaved” and the “ability to act as competitor/inhibitor of P89 cleaving” value [3] is reported as “became competitive; also recorded: behaved competitively; also recorded: competitive inhibitors”.

In the case of Ac-ITTAGPSDMYVH-NH2 [D], the “cleavability by HRV2 2A (in words)” value [2] is reported as “fall in cleavability of one order of magnitude; also recorded: reduction in the cleavability by one order of magnitude”.

Ac-TRPIITTAG-NH2 [WTN9] was tested, and the “% cleavage compared with P89” value [2] was 10% and the “cleavability by HRV2 2A (in words)” value [2] was “sufficient for a cleavage”.

For “TRIITSAGPSDMYV [B4, Thr for Ser at position P2]”, the “ability to act as competitor/inhibitor of P89 cleaving” value [3] was “became competitive; also recorded: behaved competitively”.

For “TRPIITNAGPSDMYV [B8, Thr for Asn at position P2]”, the “ability to act as competitor/inhibitor of P89 cleaving” value [3] was “became competitive; also recorded: behaved competitively”.

For “TRPIITTNGPSDMYV [G5, Ala for Asn at position P1]”, the “cleavability by HRV2 2A (in words)” value [2] was “dramatically reduced cleavability” and the “ability to act as competitor/inhibitor of P89 cleaving” value [3] was “became competitive; also recorded: behaved competitively”.

In the case of “TRPIITTPSDMYVH [AB2, deleted Wild type substrate, missing cleavage site]”, the “cleavability by HRV2 2A (in words)” value [2] is reported as “No cleaving (nor any alternative) is observed; also recorded: No cleavage (nor any alternative cleavage) was observed; also recorded: cannot be cleaved” and the “ability to act as competitor/inhibitor of P89 cleaving” value [3] is reported as “became competitive; also recorded: behaved competitively; also recorded: competitive inhibitors”.

With “acetyl-TRPIITTA*GPSDMYVH-NH2 (Ac-TRPIITTAGPSDMYVH-NH2; not fully specified (residue 8); printed as acetyl-TRPIITTA*GPSDMYVH-NH2) [P89, reference compound]” the Km [4] was 540 µM and the “cleavability by HRV2 2A (in words)” value [2] was “specifically cleaved”.

In the case of chymostatin, the “effect on the activity of 2A relative to peptide P89” value [1, 5] is reported as “highly effective”.
